Measurements: patent US20110251379A1, “COMPOUNDS USEFUL FOR TREATING NEURODEGENERATIVE DISORDERS” (Satori Pharmaceuticals, Inc., priority 2010, published 2011)
Like-named read-outs stand apart in the source and are kept apart here.

Key:
Assay type in all cases: cell-based
Aβ-38 = assay: MSD Human (6E10) Ab 3-PLEX elisa, conditioned media of 2B7 cells: Aβ-38; conditions: Homo sapiens; for inhibition at 100 µM: Aβ-38, 100 μM; for inhibition at 20 µM: Aβ-38, 20 μM; for IC50: Aβ-38 (superscript a)
How it was run: (§1)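 Confluent 2B7 cells were treated with compounds for 5 hours at 37° C in media with 1% DMSO. Conditioned media, diluted 1:1 in blocking buffer, was incubated overnight at 4 °C or 2 h at room temperature on MSD 6E10 plates. Aβ levels were read against seven-point standard curves, and IC50 was obtained from 4-parameter fits of percent vehicle.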

Aβ-42 = assay: MSD Human (6E10) Ab 3-PLEX elisa, conditioned media of 2B7 cells: Aβ-42; conditions: Homo sapiens; for IC50: Aβ-42 (superscript c); for inhibition at 20 µM: Aβ-42, 20 μM
How it was run: as §1

Aβ-40 = assay: MSD Human (6E10) Ab 3-PLEX elisa, conditioned media of 2B7 cells: Aβ-40; conditions: for inhibition at 100 µM / inhibition at 20 µM / IC50: Homo sapiens; for inhibition at 20 µM: Aβ-40, 20 μM; for IC50: Aβ-40 (superscript b)
How it was run: as §1

C[C@@H]1CC(CN2CCC[C@H]2C(=O)O)OC2[C@H]1[C@@]1(C)CC[C@@]34C[C@@]35CC[C@H](O[C@H]3CN(C(=O)CC6CC6)CCO3)C(C)(C)[C@@H]5CCC4[C@]1(C)[C@H]2O (some centres unmarked)
inhibition at 100 µM (Aβ-38): 25 to 75%
IC50 (Aβ-42; read-out: IC50 range): > 10000 nM
inhibition at 100 µM (Aβ-40; Aβ-40, 100 μM): 25 to 75%

CC(=O)NCCC1C[C@@H](C)[C@H]2C(O1)[C@H](O)[C@@]1(C)C3CC[C@H]4C(C)(C)[C@@H](O)CC[C@@]45C[C@@]35CC[C@]21C (some centres unmarked)
inhibition at 20 µM (Aβ-38): 25 to 75%
IC50 (Aβ-42; read-out: 50% reduction value): 1000 to 10000 nM
inhibition at 20 µM (Aβ-40): < 25%

COC(=O)OCC1C[C@@H](C)[C@H]2C(O1)[C@H](O)[C@@]1(C)C3CC[C@H]4C(C)(C)[C@@H](O)CC[C@@]45C[C@@]35CC[C@]21C (some centres unmarked)
inhibition at 20 µM (Aβ-38): 25 to 75%
inhibition at 20 µM (Aβ-42): 25 to 75%
inhibition at 20 µM (Aβ-40): 25 to 75%

C[C@@H]1CC([C@H](Oc2ncccn2)C(C)(C)O)OC2C1[C@@]1(C)CC[C@@]34C[C@@]35CCC(O)C(C)(C)[C@@H]5CCC4[C@]1(C)[C@H]2O (some centres unmarked)
inhibition at 20 µM (Aβ-38): 25 to 75%
inhibition at 20 µM (Aβ-42): 25 to 75%
inhibition at 20 µM (Aβ-40): 25 to 75%

C[C@@H]1CC([C@H](Oc2ncccn2)C(C)(C)O)OC2C1[C@@]1(C)CC[C@@]34C[C@@]35CCC(OC(=O)N3CCOCC3)C(C)(C)[C@@H]5CCC4[C@]1(C)[C@H]2O (some centres unmarked)
inhibition at 20 µM (Aβ-38): 25 to 75%
IC50 (Aβ-42; read-out: 50% reduction value): > 10000 nM
IC50 (Aβ-40; read-out: IC50 range): > 10000 nM

COCC1C[C@@H](C)[C@H]2C(O1)[C@H](O)[C@@]1(C)[C@@H]3CC[C@H]4C(C)(C)C(O[C@H]5CN(C6COC6)CCO5)CC[C@@]45C[C@@]35CC[C@]21C (some centres unmarked)
inhibition at 20 µM (Aβ-38): < 25%
inhibition at 20 µM (Aβ-42): < 25%
inhibition at 20 µM (Aβ-40): < 25%

C[C@@H]1CC(CN(C)[C@@H](C)C(=O)O)OC2[C@H]1[C@@]1(C)CC[C@@]34C[C@@]35CC[C@H](O[C@H]3CN(C(=O)CC6CC6)CCO3)C(C)(C)[C@@H]5CCC4[C@]1(C)[C@H]2O (some centres unmarked) [drawing 1142]
inhibition at 100 µM (Aβ-38): 25 to 75%
inhibition at 100 µM (Aβ-42; Aβ-42, 100 μM): 25 to 75%
% Inh. (range) (Aβ-40; Aβ-40, 100 μM, 100 µM): E^a (100 μM) E^b (100 μM) E^c (100 μM) (% inhibition of 25-75%)

C[C@@H]1CC(CN(C)[C@@H](C)C(=O)O)OC2[C@H]1[C@@]1(C)CC[C@@]34C[C@@]35CC[C@H](O[C@H]3CN(C(=O)CC6CC6)CCO3)C(C)(C)[C@@H]5CCC4[C@]1(C)[C@H]2O (some centres unmarked) [drawing 1155]
IC50 (Aβ-38; read-out: IC50 range): < 1000 nM
IC50 (Aβ-42; read-out: IC50 range): 1000 to 10000 nM
inhibition at 100 µM (Aβ-40; Aβ-40, 100 μM): 25 to 75%

CC(=O)O[C@@H]([C@H]1C[C@@H](C)C2C(O1)[C@H](O)[C@@]1(C)[C@@H]3CC[C@H]4C(C)(C)[C@@H](O[C@@H]5OC[C@@H](O)[C@H](O)[C@H]5O)CC[C@@]45C[C@@]35CC[C@]21C)C(C)(C)O (some centres unmarked) [drawing 1160]
IC50 (Aβ-38; read-out: IC50 range): < 1000 nM
IC50 (Aβ-42; read-out: 50% reduction value): < 1000 nM
IC50 (Aβ-42; read-out: IC50 range): < 1000 nM
IC50 (Aβ-40; read-out: IC50 range): 1000 to 10000 nM

CC(=O)OCC1C[C@@H](C)C2C(O1)[C@H](O)[C@@]1(C)[C@@H]3CC[C@H]4C(C)(C)[C@@H](O)CC[C@@]45C[C@@]35CC[C@]21C (some centres unmarked) [drawing 1161]
inhibition at 20 µM (Aβ-38): 25 to 75%
inhibition at 20 µM (Aβ-42): 25 to 75%
inhibition at 20 µM (Aβ-40): 25 to 75%

CCC(=O)O[C@@H]([C@H]1C[C@@H](C)C2C(O1)[C@H](O)[C@@]1(C)[C@@H]3CC[C@H]4C(C)(C)[C@@H](O)CC[C@@]45C[C@@]35CC[C@]21C)C(C)(C)O (some centres unmarked) [drawing 1197]
IC50 (Aβ-38; read-out: 50% reduction value): > 10000 nM
IC50 (Aβ-42; read-out: 50% reduction value): > 10000 nM
IC50 (Aβ-40; read-out: 50% reduction value): > 10000 nM

CC(=O)O[C@@H]([C@H]1C[C@@H](C)C2C(O1)[C@H](O)[C@@]1(C)[C@@H]3CC[C@H]4C(C)(C)[C@@H](OC5CN(CC(N)=O)CCO5)CC[C@@]45C[C@@]35CC[C@]21C)C(C)(C)O (some centres unmarked) [drawing 1198]
IC50 (Aβ-38; read-out: 50% reduction value): < 1000 nM
IC50 (Aβ-42; read-out: 50% reduction value): < 1000 nM
IC50 (Aβ-42; read-out: IC50 range): 1000 to 10000 nM
inhibition at 20 µM (Aβ-40): 25 to 75%

CC(=O)O[C@@H]([C@H]1C[C@@H](C)C2C(O1)[C@H](O)[C@@]1(C)[C@@H]3CC[C@H]4C(C)(C)[C@@H](OC5CN(CC(=O)N(C)C)CCO5)CC[C@@]45C[C@@]35CC[C@]21C)C(C)(C)O (some centres unmarked) [drawing 1199]
IC50 (Aβ-38; read-out: 50% reduction value): < 1000 nM
IC50 (Aβ-38; read-out: IC50 range): < 1000 nM
IC50 (Aβ-42; read-out: 50% reduction value): < 1000 nM
IC50 (Aβ-42; read-out: IC50 range): < 1000 nM
IC50 (Aβ-40; read-out: 50% reduction value): 1000 to 10000 nM

CC(=O)O[C@@H]([C@H]1C[C@@H](C)C2C(O1)[C@H](O)[C@@]1(C)[C@@H]3CC[C@H]4C(C)(C)[C@@H](OC(=O)c5cccnc5)CC[C@@]45C[C@@]35CC[C@]21C)C(C)(C)O (some centres unmarked) [drawing 1200]
IC50 (Aβ-38; read-out: 50% reduction value): < 1000 nM
IC50 (Aβ-38; read-out: IC50 range): < 1000 nM
IC50 (Aβ-42; read-out: 50% reduction value): < 1000 nM
IC50 (Aβ-42; read-out: IC50 range): < 1000 nM
IC50 (Aβ-40; read-out: 50% reduction value): > 10000 nM

CC(=O)O[C@@H]([C@H]1C[C@@H](C)[C@H]2[C@H](O1)[C@H](O)[C@@]1(C)[C@@H]3CC[C@H]4C(C)(C)C(OC(N)=O)CC[C@@]45C[C@@]35CC[C@]21C)C(C)(C)O (some centres unmarked) [drawing 1201]
IC50 (Aβ-38; read-out: 50% reduction value): < 1000 nM
IC50 (Aβ-38; read-out: IC50 range): < 1000 nM
IC50 (Aβ-42; read-out: 50% reduction value): < 1000 nM
IC50 (Aβ-42; read-out: IC50 range): < 1000 nM
inhibition at 20 µM (Aβ-40): 25 to 75%
